According to US20260226077A1, “TYPE II TOPOISOMERASE INHIBITORS AND METHODS OF MAKING AND USING THEREOF” (Ohio State Innovation Foundation, priority 2023, published 2026):
≈ marks a conversion by molar mass, not a printed value. Marks after values point to notes of the source that are not given here.

Columns and labels:
[1] = test system: FQ-R MRSA; test: MIC against FQ-R MRSA isolates; type: cell-based, Staphylococcus aureus; conditions: n = 15 (147), n = 25 (284, 319, gepotidacin); for MIC90: Staphylococcus aureus, MRSA
[2] = test system: D83N; test: MIC against D83N mutant; type: cell-based
[3] = test system: TopoIV/gyrase; test: TopoIV/gyrase inhibition ratio; type: biochemical
[4] = molecular target: hERG (Homo sapiens, UniProt Q12809); test: hERG inhibition; type: cell-based
hERG, sequence (Q12809 whole entry): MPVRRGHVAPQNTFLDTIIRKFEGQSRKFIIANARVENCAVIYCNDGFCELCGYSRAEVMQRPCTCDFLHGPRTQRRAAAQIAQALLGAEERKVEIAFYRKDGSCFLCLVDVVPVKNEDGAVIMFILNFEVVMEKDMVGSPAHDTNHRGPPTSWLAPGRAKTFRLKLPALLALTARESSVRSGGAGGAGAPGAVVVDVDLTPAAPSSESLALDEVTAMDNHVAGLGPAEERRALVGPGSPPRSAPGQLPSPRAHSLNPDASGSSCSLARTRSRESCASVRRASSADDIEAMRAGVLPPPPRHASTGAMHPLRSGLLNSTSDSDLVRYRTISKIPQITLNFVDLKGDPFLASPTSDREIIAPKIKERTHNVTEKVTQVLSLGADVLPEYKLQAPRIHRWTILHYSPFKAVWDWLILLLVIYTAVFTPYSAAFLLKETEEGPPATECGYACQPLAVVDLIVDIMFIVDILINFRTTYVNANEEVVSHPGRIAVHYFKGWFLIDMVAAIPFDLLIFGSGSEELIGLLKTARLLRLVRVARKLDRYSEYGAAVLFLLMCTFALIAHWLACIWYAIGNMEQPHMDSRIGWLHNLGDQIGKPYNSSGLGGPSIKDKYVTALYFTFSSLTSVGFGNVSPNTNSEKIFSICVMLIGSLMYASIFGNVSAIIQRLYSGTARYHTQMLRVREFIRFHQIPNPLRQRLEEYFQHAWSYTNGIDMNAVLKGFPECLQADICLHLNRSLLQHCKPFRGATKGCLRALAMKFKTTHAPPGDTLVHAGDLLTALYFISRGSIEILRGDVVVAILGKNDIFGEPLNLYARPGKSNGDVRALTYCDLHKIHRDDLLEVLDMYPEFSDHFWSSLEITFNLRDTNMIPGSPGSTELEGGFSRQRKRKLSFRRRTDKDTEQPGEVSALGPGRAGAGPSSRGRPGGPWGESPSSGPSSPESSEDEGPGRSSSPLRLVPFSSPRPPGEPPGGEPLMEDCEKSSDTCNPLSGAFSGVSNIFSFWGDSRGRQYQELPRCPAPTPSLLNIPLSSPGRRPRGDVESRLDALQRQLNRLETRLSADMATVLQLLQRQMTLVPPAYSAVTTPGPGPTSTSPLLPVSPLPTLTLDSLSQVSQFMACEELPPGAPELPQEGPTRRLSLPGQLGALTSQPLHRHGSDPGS

[5] = test system: K562; test: K562 cytotoxicity; type: cell-based; conditions: Homo sapiens
[6] = Mouse microsomal stability; type: in vitro ADME; conditions: microsomes, read-out: Mouse microsom. t1/2
[7] = Human microsomal stability; type: in vitro ADME; conditions: microsomes, read-out: Human microsom. t1/2
[8] = test system: S. aureus ATCC 29213; type: cell-based; conditions: Using S. aureus ATCC 29213
[9] = test system: Staphylococcus aureus; test: MIC50/90 against Staphylococcus aureus isolates; type: cell-based; conditions: n = 30 (147), n = 100 (284, 319, gepotidacin)
[10] = test system: Enterococcus spp.; test: MIC50/90 against Enterococcus spp.; type: cell-based; conditions: n = 10 (147), n = 20 (others)
[11] = test system: Streptococcus pneumoniae; test: MIC50/90 against Streptococcus pneumoniae; type: cell-based; conditions: for MIC50: n = 5 (147), n = 10 (others); for MIC90: n = 10
[12] = test system: Streptococcus pyogenes; test: MIC50/90 against Streptococcus pyogenes; type: cell-based; conditions: for MIC50: n = 5 (147), n = 10 (others); for MIC90: n = 10
[13] = test system: Streptococcus agalactiae; test: MIC50/90 against Streptococcus agalactiae; type: cell-based; conditions: Streptococcus agalactiae; for MIC50: n = 5 (147), n = 10 (others); for MIC90: n = 10
[14] = test system: Bacillus anthracis; test: microbe, parasite or virus in culture; type: cell-based; conditions: for MIC50: read-out: Bacillus anthracis MIC50 (μg/mL); for MIC90: read-out: Bacillus anthracis MIC90 (μg/mL)
[15] = test system: Neisseria gonorrhoeae; test: MIC50/90 against Neisseria gonorrhoeae; type: cell-based; conditions: Neisseria gonorrhoeae; n = 17 (284, gepotidacin); n = 110 (147)
[16] = test system: Escherichia coli 25922; test: MIC against Escherichia coli 25922; type: cell-based; conditions: Escherichia coli, 25922
[17] = test system: Acinetobacter baumannii 19606; test: MIC against Acinetobacter baumannii 19606; type: cell-based
[18] = test system: Pseudomonas aeruginosa 27853; test: MIC against Pseudomonas aeruginosa 27853; type: cell-based
[19] = test system: CYP 1A, 2B6, 2C8, 2C9, 2C19, 2D6, 3A; test: CYP inhibition at 10 μM; type: in vitro ADME
[20] = test system: CACO-2; test: Permeability: CACO-2 A->B; type: in vitro ADME
[21] = molecular target: 5-HT2b (Homo sapiens, UniProt P41595); test: Safety44 screen at 100 μM: 5-HT2b
5-HT2b, sequence (P41595 whole entry): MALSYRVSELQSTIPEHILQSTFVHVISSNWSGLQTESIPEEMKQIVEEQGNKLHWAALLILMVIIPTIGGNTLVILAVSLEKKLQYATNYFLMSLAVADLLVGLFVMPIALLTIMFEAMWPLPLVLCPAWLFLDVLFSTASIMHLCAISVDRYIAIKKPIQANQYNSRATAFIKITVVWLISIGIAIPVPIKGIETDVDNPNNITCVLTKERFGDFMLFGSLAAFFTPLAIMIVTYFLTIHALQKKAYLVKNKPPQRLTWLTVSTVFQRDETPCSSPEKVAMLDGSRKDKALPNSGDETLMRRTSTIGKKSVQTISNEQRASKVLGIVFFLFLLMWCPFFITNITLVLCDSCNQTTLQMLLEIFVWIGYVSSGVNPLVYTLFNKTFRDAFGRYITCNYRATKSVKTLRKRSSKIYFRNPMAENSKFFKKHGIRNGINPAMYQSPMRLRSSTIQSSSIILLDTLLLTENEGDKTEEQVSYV

[22] = not given; remark: listed apart in the source
[23] = in vivo; conditions: mouse
[24] = physchem; conditions: pH 7.4, aqueous buffer, kinetic from dmso stock, Kinetic solubility at pH 7.4-7.5 (μM)
[25] = Mouse pharmacokinetics; conditions: 284: as free base in immunocompetent mice, 147: no footnote
[26] = test system: M121K; test: MIC against M121K mutant; type: cell-based
[27] = Rat microsomal stability; type: in vitro ADME; conditions: microsomes, read-out: Rat microsom. t1/2
[28] = Dog microsomal stability; type: in vitro ADME; conditions: microsomes, read-out: Dog microsom. t1/2
[29] = Monkey microsomal stability; type: in vitro ADME; conditions: microsomes, read-out: Monkey microsom. t1/2
[30] = test system: Escherichia coli; test: MIC50 against Escherichia coli isolates; type: cell-based; conditions: n = 8
[31] = test system: Pseudomonas aeruginosa; test: MIC50 against Pseudomonas aeruginosa isolates; type: cell-based; conditions: n = 8
[32] = Permeability: CACO-2 A->B; type: in vitro ADME; conditions: human, Caco-2
[33] = Permeability: MDCK II A->B; type: in vitro ADME; conditions: dog
[34] = test system: S. aureus 29213; test: MIC against S. aureus 29213; type: cell-based; conditions: Staphylococcus aureus
[35] = test system: S. aureus USA300; test: MIC against S. aureus USA300; type: cell-based; conditions: Staphylococcus aureus
[36] = test system: S. aureus CF isolate; test: MIC against S. aureus CF isolate; type: cell-based; conditions: Staphylococcus aureus
[37] = all channels
[38] = in vitro; conditions: mouse, plasma
[39] = in vitro; conditions: human, plasma
[40] = in vitro; conditions: rat, plasma
[41] = test system: Staphylococcus epidermidis; test: MIC50/90 against Staphylococcus epidermidis; type: cell-based; conditions: n = 10
[42] = test system: Moraxella catarrhalis; test: MIC50/90 against Moraxella catarrhalis; type: cell-based; conditions: n = 10
[43] = test system: Haemophilus influenzae; test: MIC50/90 against Haemophilus influenzae; type: cell-based; conditions: n = 10
[44] = test system: Mycobacterium abscessus; test: MIC50/90 against Mycobacterium abscessus; type: cell-based; conditions: Mycobacteroides abscessus; n = 10
[45] = test system: Mycobacterium avium; test: MIC50 against Mycobacterium avium; type: cell-based; conditions: n = 4
[46] = test system: Mycobacterium chimaera intracellulare group; test: MIC50 against Mycobacterium chimaera intracellulare group; type: cell-based; conditions: n = 6
[47] = test system: Francisella tularensis; test: microbe, parasite or virus in culture; type: cell-based
[48] = test system: Yersinia pestis; test: microbe, parasite or virus in culture; type: cell-based
[49] = test system: Burkholderia mallei; test: microbe, parasite or virus in culture; type: cell-based; conditions: Burkholderia mallei
[50] = test system: Burkholderia pseudomallei; test: microbe, parasite or virus in culture; type: cell-based
[51] = in vivo; cited from earlier work

Compound: COc1ccc2ncc(F)c(C[C@H](O)[C@H]3OC[C@H](NCc4cc5c(nn4)OCCS5)CO3)c2n1 [Compound 147, reference compound]
- MIC90 [1]: 0.25 µg/mL (≈ 0.511 µM)
- MIC [2]: 4 to 8 µg/mL (≈ 8.17 to 16.3 µM)
- TopoIV/gyrase ratio [3]: 16
- IC50 [4]: 103 µM
- IC50 [5]: 153 µM
- half-life [6]: 0.3 to 0.433 h
- half-life [7]: 1.57 h
- Resistance freq. (at 8X MIC) [8]: 2.02 × 10^−9*
- MIC50 [9]: 0.12 µg/mL (≈ 0.245 µM)
- MIC90 [9]: 0.25 µg/mL (≈ 0.511 µM)
- MIC50 [10]: 0.25 µg/mL (≈ 0.511 µM)
- MIC90 [10]: 1 µg/mL (≈ 2.04 µM)
- MIC50 [11]: 0.5 µg/mL (≈ 1.02 µM)
- MIC50 [12]: 0.5 µg/mL (≈ 1.02 µM)
- MIC50 [13]: 4 µg/mL (≈ 8.17 µM)
- MIC50 [14]: 2 µg/mL (≈ 4.09 µM)
- MIC90 [14]: 8 µg/mL (≈ 16.3 µM)
- MIC50 [15]: > 4 µg/mL
- MIC90 [15]: > 4 µg/mL
- MIC [16]: > 64 µg/mL
- MIC [17]: 64 µg/mL (≈ 131 µM)
- MIC [18]: > 64 µg/mL
- CYP inhibition at 10 μM (1A, 2B6, 2C8, 2C9, 2C19, 2D6, 3A) [19]: No issues
- Permeability: CACO-2 A−>B (×10^−6 cm/s) [20]: 5.68 ×10^−6 cm/s
- Safety44 screen at 100 μM: 5-HT2b [21]: 5-HT2b (72%)
- Mouse plasma protein binding (% unbound): 12 % unbound
- Human plasma protein binding (% unbound) [22]: 15 % unbound
- Vd ([23]; Mouse Vdss (L)): 1 L
- bioavailability ([23]; po, Mouse PK Oral bioavailability (%)): 49%
- solubility kinetic [24]: 69.6 µM (≈ 34.1 µg/mL)
- Mouse PK AUClast, unbound (μg*h/mL) after 50 mg/kg oral dose ([25]; 50 mg/kg oral): 0.9 µg·h/mL
- Mouse Clunbound [25]: 575 mL/min/kg

Compound: O=C1COc2ncc(CN[C@H]3CO[C@H](CC4Cn5c(=O)ccc6ccc(F)c4c65)OC3)nc2N1 (stereo partly drawn) [Compound 319, 6-(((2-((9-fluoro-4-oxo-1,2-dihydro-4H-pyrrolo[3,2,1-ij]quinolin-1-yl)methyl)-trans-1,3-dioxan-5-yl)amino)methyl)-2H-pyrazino[2,3-b][1,4]oxazin-3(4H)-one]
- MIC90 [1]: 0.5 µg/mL (≈ 1.07 µM)
- FQ-R MRSA MIC90 (μg/mL) [1]: 0.5/0.5 μg/mL
- MIC [2]: 4 µg/mL (≈ 8.56 µM)
- MIC [26]: 4 µg/mL (≈ 8.56 µM)
- TopoIV/gyrase ratio [3]: 0.65
- IC50 [5]: 135 µM
- half-life [6]: 5.78 h
- half-life [7]: > 2 h
- half-life [27]: > 2 h
- half-life [28]: > 2 h
- half-life [29]: > 2 h
- MIC50 [9]: 0.5 µg/mL (≈ 1.07 µM)
- MIC90 [9]: 1 µg/mL (≈ 2.14 µM)
- MIC50 [10]: 4 µg/mL (≈ 8.56 µM)
- MIC90 [10]: 8 µg/mL (≈ 17.1 µM)
- MIC50 [11]: 1 µg/mL (≈ 2.14 µM)
- MIC90 [11]: 2 µg/mL (≈ 4.28 µM)
- MIC50 [12]: 2 µg/mL (≈ 4.28 µM)
- MIC90 [12]: 8 µg/mL (≈ 17.1 µM)
- MIC50 [13]: 16 µg/mL (≈ 34.2 µM)
- MIC90 [13]: 32 µg/mL (≈ 68.5 µM)
- MIC50 [30]: 16 µg/mL (≈ 34.2 µM)
- MIC50 [31]: 16 µg/mL (≈ 34.2 µM)
- MIC [16]: 16 µg/mL (≈ 34.2 µM)
- MIC [17]: 16 µg/mL (≈ 34.2 µM)
- MIC [18]: 64 µg/mL (≈ 137 µM)
- Papp A→B [32]: 0.8 ×10⁻⁶ cm/s
- Papp A→B [33]: 1.96 ×10⁻⁶ cm/s
- MIC [34]: 0.5 µg/mL (≈ 1.07 µM)
- MIC [35]: 0.5 µg/mL (≈ 1.07 µM)
- MIC [36]: 0.25 µg/mL (≈ 0.535 µM)
- Mouse plasma protein binding (% unbound): 27 % unbound
- Human plasma protein binding (% unbound) [22]: 23 % unbound
- Comprehensive in vitro proarrhythmia assay at 100 μM, inhibition [37]: All <25%
- half-life [38]: > 4 h
- half-life [39]: 2.18 h
- half-life [40]: > 4 h
- solubility kinetic [24]: 25 µM (≈ 11.7 µg/mL)

Compound: O=c1ccc2ncc(=O)n3c2n1C[C@H]3CN1CCC(NCc2cc3c(cn2)OCCC3)CC1 [gepotidacin, reference compound]
- MIC90 [1]: 0.5 µg/mL (≈ 1.11 µM)
- MIC50 [9]: 0.25 µg/mL (≈ 0.557 µM)
- MIC90 [9]: 0.5 µg/mL (≈ 1.11 µM)
- MIC50 [41]: 0.25 µg/mL (≈ 0.557 µM)
- MIC90 [41]: 0.5 µg/mL (≈ 1.11 µM)
- MIC50 [10]: 2 µg/mL (≈ 4.46 µM)
- MIC90 [10]: 4 µg/mL (≈ 8.92 µM)
- MIC50 [11]: 0.12 µg/mL (≈ 0.268 µM)
- MIC90 [11]: 0.25 µg/mL (≈ 0.557 µM)
- MIC50 [12]: 0.12 µg/mL (≈ 0.268 µM)
- MIC90 [12]: 0.5 µg/mL (≈ 1.11 µM)
- MIC50 [13]: 0.5 µg/mL (≈ 1.11 µM)
- MIC90 [13]: 1 µg/mL (≈ 2.23 µM)
- MIC50 [42]: 0.06 µg/mL (≈ 0.134 µM)
- MIC90 [42]: 0.06 µg/mL (≈ 0.134 µM)
- MIC50 [43]: 1 µg/mL (≈ 2.23 µM)
- MIC90 [43]: 2 µg/mL (≈ 4.46 µM)
- MIC50 [44]: 16 µg/mL (≈ 35.7 µM)
- MIC90 [44]: 64 µg/mL (≈ 143 µM)
- MIC50 [45]: 32 µg/mL (≈ 71.3 µM)
- MIC50 [46]: > 64 µg/mL
- MIC50 [14]: 0.5 µg/mL (≈ 1.11 µM)
- MIC90 [14]: 0.5 µg/mL (≈ 1.11 µM)
- MIC50 ([47]; read-out: Francisella tularensis MIC50 (μg/mL)): 0.12 µg/mL (≈ 0.268 µM)
- MIC90 ([47]; read-out: Francisella tularensis MIC90 (μg/mL)): 0.5 µg/mL (≈ 1.11 µM)
- MIC50 ([48]; read-out: Yersinia pestis MIC50 (μg/mL)): 0.12 µg/mL (≈ 0.268 µM)
- MIC90 ([48]; read-out: Yersinia pestis MIC90 (μg/mL)): 0.5 µg/mL (≈ 1.11 µM)
- MIC50 ([49]; read-out: Burkholderia mallei MIC50 (μg/mL)): 8 µg/mL (≈ 17.8 µM)
- MIC90 ([49]; read-out: Burkholderia mallei MIC90 (μg/mL)): ≥ 64 µg/mL
- MIC50 ([50]; read-out: Burkholderia pseudomallei MIC50 (μg/mL)): 32 µg/mL (≈ 71.3 µM)
- MIC90 ([50]; read-out: Burkholderia pseudomallei MIC90 (μg/mL)): 32 µg/mL (≈ 71.3 µM)
- MIC50 [15]: 0.5 µg/mL (≈ 1.11 µM)
- MIC90 [15]: 1 µg/mL (≈ 2.23 µM)
- MIC [16]: 1 to 2 µg/mL (≈ 2.23 to 4.46 µM)
- MIC [17]: 32 µg/mL (≈ 71.3 µM)
- MIC [18]: 8 to 16 µg/mL (≈ 17.8 to 35.7 µM)

Compound: NXL-101
- QT-prolongation in clinical studies [51]: withdrawn from clinical studies as a result of QT-prolongation
